Key:
soybean = test: Greenhouse soybean pot trial with magnesium lactate; type: in vivo
Experimental: Materials and Methods: One soybean seed was planted in each of the 60 individually marked pots using six different treatments in a randomized complete block design. Plants were grown in the greenhouse under controlled and ideal conditions. All pots were handled and cared for the same exact way throughout their entire growing season. Several measurements were recorded during this trial starting with emergence hours, the number of plants emerged, and unifoliate, 1st trifoliate, 3rd trifoliate, 5th trifoliate, and 7th trifoliate leaf area readings. […] of the measurements that were recorded when this trial was harvested are the number of pods, weight of pods, total soybean seed weight per treatment, and average soybean seed weight per pot.
The magnesium lactate improved the efficiency with which the plant builds chlorophyll when it was applied foliar in sparingly small quantities to soybean plants early in their growth stage.

corn = test: Greenhouse corn pot trial with magnesium lactate; type: in vivo
Experimental: The corn trial that was conducted using MgL had one corn seed planted in each of the 60 individually marked pots using six different treatments in a randomized complete block design. Plants were grown in the greenhouse under controlled and ideal conditions. All pots were handled and cared for the same exact way throughout their entire growing season. During this trial the emergence hours, the number of plants emerged, and plant height measurements were taken at specific plant stages and recorded. Several measurements were documented when the trial was harvested which were V10 plant height, V10 chlorophyll readings, stalk diameter, and biomass.

For CC(O)C(=O)[O-].CC(O)C(=O)[O-].[Mg+2] (stereo not drawn) [MgL, magnesium lactate], the “efficiency with which the plant builds chlorophyll” value (soybean; applied foliar in sparingly small quantities to soybean plants early in their growth stage) was “improved”, the “soybean yield (average soybean seed weight per pot)” value (soybean; greenhouse pots, FIG. 8) was “positive impact” and the “overall performance in comparison to conventional magnesium compounds, such magnesium sulfate (MgSO)” value (soybean; soybean trial) was “performed better overall”. For the same molecule, the “overall performance in comparison to conventional magnesium compounds, such magnesium sulfate (MgSO)” value (corn; corn trial) was “performed better overall”, the corn biomass (corn; greenhouse pots, FIG. 14) was “positive impact” and the “growth and development of corn” value (corn; greenhouse pots, FIGS. 10-14) was “positive impact”.

Reference: patent publication US20230329140A1, “MAC[…]” (Ralco Nutrition Inc., priority 2019, published 2023)
